“And” between values parts separate entries of the source, which are not always exact repeats. Identical values can stand only once. Like-named read-outs stand apart in the source and are kept apart here.
Test: Half-life of ADR destruction by UVA light in the presence of test compounds (decrease in absorbance at 480 nm)
Type: physicochemical
[1] = UVA light, 100 μM test compound alone
[2] = UVA light, 100 μM test compound with 0.5 μM riboflavin

| Compound | Half-Life of ADR Destruction, 100 μM Test Compound [1] [min] | Half-Life of ADR Destruction, 100 μM Test Compound and 0.5 μM Riboflavin [2] | other results |
| --- | --- | --- | --- |
| COc1ccc(C=CCO)cc1O [3-Hydroxy-4-Methoxy Cinnamyl Alcohol] | 50.2 | 50.2 min |  |
| O=C(O)C(=O)c1c[nH]c2ccccc12 [3-Indole glyoxylic acid] |  | 43.0 min |  |
| O=C(O)CCCc1c[nH]c2ccccc12 [3-Indolebutyric acid] |  | 10.0 min |  |
| OCCc1c[nH]c2ccccc12 [3-Indoleethanol] |  | 8.14 min |  |
| O=C(O)C(O)Cc1c[nH]c2ccccc12 (stereo not drawn) [3-Indolelactic acid] |  | 6.40 min |  |
| COc1cccc(N)c1 [3-Methoxy Aniline] |  | 30.1 min |  |
| COc1cccc(C(=O)O)c1 [3-Methoxy Benzoic Acid] | 43.0 |  |  |
| COc1cccc(C=CC(=O)O)c1 [3-Methoxy Cinnamic Acid] | 43.0 | 21.5 min |  |
| COc1cccc(O)c1 [3-Methoxy Phenol] | 43.0 |  |  |
| COc1cc(C=CC=O)ccc1O [3-Methoxy-4-Hydroxy Cinnamaldehyde] |  | 50.2 min |  |
| Cc1cccc(N)c1 [3-Methyl Aniline] |  |  | Half-Life of ADR Destruction, 100 μM Test Compound and 0.5 μM Riboflavin: 33.5 min |
| Cc1c[nH]c2ccccc12 [3-Methyl Indole] |  | 20.1 min |  |
| Nc1cccc(Oc2ccccc2)c1 [3-Phenoxyaniline] | 43.0 | 12.5 min |  |
| OCCCc1ccccc1 [3-Phenyl-1-Propanol] | 50.2 | 43.0 min |  |
| O=S(=O)=C1C=CC=C(S(=O)(=O)O)C1 [3-Sulfonyl-benzenesulfonic acid] |  | 50.2 min |  |
| COc1ccc(C(=O)c2cccc(C(=O)O)c2)cc1OC [3′,4′-Dimethoxy-3-benzophenonecarboxylic acid] | 50.2 | 43.0 min |  |
| CC(=O)c1cccc(O)c1 [3′-Hydroxyacetophenone] | 75.3 |  |  |
| COc1cccc(C(C)=O)c1 [3′-Methoxyacetophenone] | 33.4 | 33.4 min |  |
| O=S(=O)(c1ccc(O)cc1)c1ccc(O)cc1 [4,4-Dihydroxy Phenylsulfone] | 43.0 | 43.0 min |  |
| Nc1ccc(C(=O)c2ccc(N)cc2)cc1 [4,4′-Diamino-benzophenone] |  | 27.4 min |  |
| c1cc2c([nH]1)CCCC2 [4,5,6,7-tetrahydroindole] |  | 14.3 min |  |
| O=C(O)CCCc1ccc2ccccc2c1 [4-(2-Naphthyl)butyric acid] | 43.0 | 15.1 min |  |
| COc1ccc(CCCC(=O)O)cc1 [4-(4-Methoxyphenyl) Butyric Acid] |  | 10.8 min |  |

| Compound | Half-Life of ADR Destruction, 100 μM Test Compound [1] [min] | Half-Life of ADR Destruction, 100 μM Test Compound and 0.5 μM Riboflavin [2] | other results |
| --- | --- | --- | --- |
| COc1ccc(CCCCO)cc1 [4-(4-Methoxyphenyl)-1-Butanol] | 43.0 | 3.46 min |  |
| CN(C)c1ccc(C(=O)O)cc1 [4-(Dimethylamino) Benzoic Acid] |  | 75.3 min |  |
| CN(C)c1ccc(CN)cc1 [4-(Dimethylamino) Benzylamine] |  | 43.0 min |  |
| CN(C)c1ccc(CC(=O)O)cc1 [4-(Dimethylamino) Phenylacetic acid] |  | 100.3 min |  |
| CNc1ccc(C(=O)O)cc1 [4-(Methylamino) Benzoic Acid] |  | 75.3 min |  |
| Nc1ccc(OC(F)(F)F)cc1 [4-(Trifluoromethyoxy) Aniline] |  |  | Half-Life of ADR Destruction, 100 μM Test Compound and 0.5 μM Riboflavin: 43.0 min |
| Nc1ccc(S(N)(=O)=O)cc1 [4-Amino Benzenesulfonamide] |  |  | Half-Life of ADR Destruction, 100 μM Test Compound and 0.5 μM Riboflavin: 25.1 min |
| Nc1ccc(S(=O)(=O)O)cc1 [4-Amino Benzenesulfonic acid] |  | 18.8 min |  |
| Nc1ccc(C(=O)O)cc1 [4-Amino Benzoic Acid] |  | 20.6 ± 9.7 min |  |
| Nc1ccc(CO)cc1 [4-Amino Benzyl Alcohol] |  | 27.4 min |  |
| NCc1ccc(N)cc1 [4-Amino Benzylamine] |  | 7.34 ± 1.13 min |  |
| Nc1ccc(C=CC(=O)O)cc1 [4-Amino Cinnamic Acid] | 50.2 | 16.7 min |  |
| Nc1ccc(CC(=O)O)cc1 [4-Amino Phenylacetic acid] | 50.2 | 4.63 min |  |
| Nc1ccc(C[C@H](N)C(=O)O)cc1 [4-Amino Phenylalanine] | 55.2 ± 7.1 | 7.65 ± 5.46 min |  |
| Nc1ccc(CCO)cc1 [4-Amino Phenylethyl Alcohol] |  | 10.8 min |  |
| Nc1ccc(C(=O)O)cc1O [4-Amino-3-Hydroxy Benzoic Acid] |  | 75.3 min |  |
| Cc1cc(C(=O)O)ccc1N [4-Amino-3-Methyl Benzoic Acid] |  | 15.8 min |  |
| NC(=O)c1ccc(N)cc1 [4-Aminobenzamide] |  | 13.4 ± 4.7 min |  |
| Nc1ccc(C(=O)c2ccccc2)cc1 [4-Aminobenzophenone] |  | 21.5 min |  |
| Nc1ccc(Cc2ccccc2)cc1 [4-Aminodiphenylmethane] | 43.0 | 5.57 min |  |
| NCc1ccc(CN)cc1 [4-Aminomethyl Benzylamine] |  | 50.2 min and 33.5 min |  |
| O=C1c2ccccc2-c2ncccc21 [4-Aza-9-fluorenone] |  | 50.2 min |  |
| O=C(O)c1ccc(C(=O)c2ccccc2)cc1 [4-Benzophenone-carboxylic acid] |  |  | Half-Life of ADR Destruction, 100 μM Test Compound: 10.0 min; Half-Life of ADR Destruction, 100 μM Test Compound and 0.5 μM Riboflavin: 7.72 min |

| Compound | Half-Life of ADR Destruction, 100 μM Test Compound [1] [min] | Half-Life of ADR Destruction, 100 μM Test Compound and 0.5 μM Riboflavin [2] | other results |
| --- | --- | --- | --- |
| O=C(c1ccccc1)c1ccncc1 [4-Benzoylpyridine] | 17.2 ± 1.9 | 11.6 min |  |
| Nc1ccc(OCc2ccccc2)cc1 [4-Benzyloxyaniline] | 100.3 | 100.3 min |  |
| CCCCc1ccc(N)cc1 [4-Butyl Anilne] |  |  | Half-Life of ADR Destruction, 100 μM Test Compound and 0.5 μM Riboflavin: 7.17 min |
| O=C(O)c1cc(=O)c2ccccc2o1 [4-Chromone-2-carboxylic acid] | 15.8 | 14.3 min |  |
| CCc1ccc(N)cc1 [4-Ethyl Aniline] |  | 10.4 min |  |
| O=C(O)c1cccc2c1-c1ccccc1C2 [4-Fluorene Carboxylic acid] | 30.1 | 18.8 min |  |
| Nc1ccc(F)cc1 [4-Fluoro Aniline] |  | 12.0 min |  |
| CCCCCCc1ccc(N)cc1 [4-Hexyl Aniline] |  | 5.28 min |  |
| O=C(O)c1ccc(O)cc1 [4-Hydroxy Benzoic Acid] |  | 100.3 min |  |
| O=C(O)C=Cc1ccc(O)cc1 [4-Hydroxy Cinnamic Acid] | 50.2 |  |  |
| NCCc1ccc(O)cc1 [4-Hydroxy Phenethylamine (Tyramine), 4-Hydroxy Phenethylamine] |  | 33.5 min |  |
| O=C(O)Cc1ccc(O)cc1 [4-Hydroxy Phenylacetic Acid] |  | 75.3 min |  |
| OCCc1ccc(O)cc1 [4-Hydroxy Phenylethyl Alcohol] |  | 50.2 min |  |
| NC(C(=O)O)c1ccc(O)cc1 (stereo not drawn) [4-Hydroxy Phenylglycine] |  | 24.2 ± 19.0 min |  |
| NCC(O)c1ccc(O)cc1 (stereo not drawn) [4-Hydroxy-β-hydroxy Phenethylamine] |  | 50.2 min |  |
| COc1ccc(C(=O)O)cc1 [4-Methoxy Benzoic Acid] |  | 33.5 min |  |
| COc1ccc(C=CC=O)cc1 [4-Methoxy Cinnamaldehyde] |  | 50.2 min |  |
| COc1ccc(C=CC(=O)O)cc1 [4-Methoxy Cinnamic Acid] | 75.3 | 5.90 min |  |
| COc1ccc(C=CCO)cc1 [4-Methoxy Cinnamyl Alcohol] | 50.2 | 9.12 min |  |
| COc1ccc(O)cc1 [4-Methoxy Phenol] | 50.2 | 43.0 min |  |
| COc1ccc(CC(=O)O)cc1 [4-Methoxy Phenylacetic Acid] | 50.2 | 30.1 min |  |
| COc1ccc(C[C@H](N)C(=O)O)cc1 [4-Methoxy Phenylalanine] |  | 15.1 min |  |

Source: US20010056085A1, “Methods of using vesicant drug formulations” (priority 1996, published 2001)
